Source: patent publication US20080255175A1, “Anti-cancer agents, compositions and methods of treating cancers” (priority 2007, published 2008)

Experiments:
[1] = system: NCI-H460 human non-small cell lung cancer; assay: NCI-H460 human non-small cell lung cancer nude mice xenograft model; assay type: in vivo, BALB/c nude mice; settings: for Tumor Weight / Tumor Inhibitory Growth Weight: after four weeks; for Tumor Weight: twice every week, model 3.08 ± 0.88; for effect on nude mice xenograft NCI-H460 human non-small cell lung cancer growth (in words): mouse, in vivo; for dose dependence of anticancer effect (in words): two dosages per compound
Description: In this study the NCI-H460 human non-small cell lung cancer nude mice xenograft model was established and applied for in vivo anti-cancer activity evaluation of three compounds of the invention.
(§1) BALB/c nude mice, were provided by Shanghai SLAC Experimental Animal Co., Ltd. (Experimental animal production license:SCXK (Shanghai) 2003-0003; Experimental animal application license:SYXK (Jiangsu) 2002-0053). The ages of the mice was 35-40 days; their body weight was 18-22 g; half of the mice were female and the other half were male. Eight nude mice were used per group.
NCI-H460 human non-small cell lung cancer nude mice xenograft model was established by s.c. injection of 1×10^6 NCI-H460 cells into nude mice axilla. After formation of tumor the xenograft was passaged for three generations in nude mice.
(§2) The tumor growing in Log phase was isolated from nude mice and sliced into 1.5 mm^3 particles. Under SPF conditions, the tumor particles were inoculated s.c. of nude mice right axilla. The xenografted tumor was measured the length and width by vernier caliper. Nude mice were randomly divided into eight groups when the bearing tumor reached 100-300mm^3 volume. Tumor length and width were measured twice every week to dynamic evaluate the anticancer activity of the tested compounds. Compound 1 was given by i.p. twice every week, compound 2 was given by i.v. twice every week, compound 3 was given by i.v. twice every week, control Topotecan was given by i.v. twice every week. In model group saline was give i.v. twice every week. After four weeks drug administration, nude mice were sacrificed and tumor was isolated by surgery for weight detection.
Tumor volume (TV) was calculated by the following formula: TV=1/2×a×b2 a and b represent length and width, respectively.

[2] = Body weight of nude mice in the NCI-H460 xenograft study; assay type: in vivo, BALB/c nude mice; settings: after four weeks, twice every week, model 22.07 ± 1.68
Description: as §1, §2

HT-29, Human Colorectal = assay: Cell proliferation 96-welled in vitro MTT assay, HT-29; assay type: cell-based; settings: 72 hr incubation, triplicate
Protocol: (§3) In vitro Efficacy: The Compounds were tested in a Cell Proliferation 96-welled in vitro MTT assay
(§4) The tests were done in triplicate and the test samples included negative control, positive control and ACB compounds at several concentrations (10^−4 to 10^−8) in 0.4% DMSO/DW medium. The incubation time was 72 hr and the IC50 was calculated from the generated inhibition curves.

Lewis Lung, mouse lung = assay: Cell proliferation 96-welled in vitro MTT assay, Lewis Lung; assay type: cell-based; settings: Lewis lung carcinoma, 72 hr incubation, triplicate
Protocol: as §3, §4

P388, Mouse Lymphoma = assay: Cell proliferation 96-welled in vitro MTT assay, P388; assay type: cell-based; settings: 72 hr incubation, triplicate
Protocol: as §3, §4

MCF-7, Human Breast = assay: Cell proliferation 96-welled in vitro MTT assay, MCF-7; assay type: cell-based; settings: MCF7, 72 hr incubation, triplicate
Protocol: as §3, §4

[3] = 0.5 week, Dosage 1: topotecan 2, Compound 1 0.625, Compound 2 5, Compound 3 1.5625 mg/kg, X ± SD, n = 8
[4] = 0.5 week, Dosage 2: Compound 1 0.3125, Compound 2 2.5, Compound 3 0.78125 mg/kg, X ± SD, n = 8
[5] = 1 week, Dosage 1: topotecan 2, Compound 1 0.625, Compound 2 5, Compound 3 1.5625 mg/kg
[6] = 1 week, Dosage 2: Compound 1 0.3125, Compound 2 2.5, Compound 3 0.78125 mg/kg
[7] = 1.5 weeks, Dosage 1: topotecan 2, Compound 1 0.625, Compound 2 5, Compound 3 1.5625 mg/kg
[8] = 1.5 weeks, Dosage 2: Compound 1 0.3125, Compound 2 2.5, Compound 3 0.78125 mg/kg
[9] = 2 weeks, Dosage 1: topotecan 2, Compound 1 0.625, Compound 2 5, Compound 3 1.5625 mg/kg
[10] = 2 weeks, Dosage 2: Compound 1 0.3125, Compound 2 2.5, Compound 3 0.78125 mg/kg
[11] = 2.5 weeks, Dosage 1: topotecan 2, Compound 1 0.625, Compound 2 5, Compound 3 1.5625 mg/kg
[12] = 2.5 weeks, Dosage 2: Compound 1 0.3125, Compound 2 2.5, Compound 3 0.78125 mg/kg
[13] = 3 weeks, Dosage 1: topotecan 2, Compound 1 0.625, Compound 2 5, Compound 3 1.5625 mg/kg
[14] = 3 weeks, Dosage 2: Compound 1 0.3125, Compound 2 2.5, Compound 3 0.78125 mg/kg
[15] = 3.5 weeks, Dosage 1: topotecan 2, Compound 1 0.625, Compound 2 5, Compound 3 1.5625 mg/kg
[16] = 3.5 weeks, Dosage 2: Compound 1 0.3125, Compound 2 2.5, Compound 3 0.78125 mg/kg
[17] = 4 weeks, Dosage 1: topotecan 2, Compound 1 0.625, Compound 2 5, Compound 3 1.5625 mg/kg
[18] = 4 weeks, Dosage 2: Compound 1 0.3125, Compound 2 2.5, Compound 3 0.78125 mg/kg
[19] = Dosage 1: topotecan 2 i.v., Compound 1 0.625 i.p., Compound 2 5 i.v., Compound 3 1.5625 i.v. (mg/kg)
[20] = Dosage 2: Compound 1 0.3125 i.p., Compound 2 2.5 i.v., Compound 3 0.78125 i.v. (mg/kg)
[21] = higher dosage: compound 3 1.5625 mg/kg i.v., compound 2 5 mg/kg i.v., compound 1 0.625 mg/kg i.p., topotecan 2 mg/kg i.v.
[22] = lower dosage: compound 3 0.78125 mg/kg i.v., compound 2 2.5 mg/kg i.v., compound 1 0.3125 mg/kg i.p.

CCC1(OC(=O)CNC(=O)/C=C\C(=O)O)C(=O)OCc2c1cc1n(c2=O)Cc2cc3ccccc3nc2-1 (stereo not shown) [Compound 1]
Tumor Volume [1, 3]: 220.9 mm3
Tumor Volume [1, 4]: 194.9 mm3
Tumor Volume [1, 5]: 504.2 mm3
Tumor Volume [1, 6]: 560.8 mm3
Tumor Volume [1, 7]: 706.7 ± 450.3 mm3
Tumor Volume [1, 8]: 766.0 ± 480.3 mm3
Tumor Volume [1, 9]: 1104.7 ± 759.6 mm3
Tumor Volume [1, 10]: 1245.7 ± 585.6 mm3
Tumor Volume [1, 11]: 1367.1 ± 880.2 mm3
Tumor Volume [1, 12]: 1459.9 ± 793.3 mm3
Tumor Volume [1, 13]: 1566.7 ± 867.8 mm3
Tumor Volume [1, 14]: 1638.9 ± 827.1 mm3
Tumor Volume [1, 15]: 1798.2 ± 767.2 mm3
Tumor Volume [1, 16]: 1909.7 ± 464.4 mm3
Tumor Volume [1, 17]: 2088.1 mm3
Tumor Volume [1, 18]: 2209.8 mm3
Tumor Weight [1, 19]: 1.77 ± 0.73 g
Tumor Weight [1, 20]: 1.85 ± 0.75 g
Tumor Inhibitory Growth Weight [1, 19]: 42.5
Tumor Inhibitory Growth Weight [1, 20]: 39.9
inhibitory rate [1, 21]: 42.5%
inhibitory rate [1, 22]: 39.9%
effect on nude mice xenograft NCI-H460 human non-small cell lung cancer growth (in words) [1]: could inhibit
dose dependence of anticancer effect (in words) [1]: dose-dependent anticancer effect
Ending Body Weight [2, 19]: 18.86 ± 1.60 g
Ending Body Weight [2, 20]: 18.59 ± 1.46 g
IC50 (HT-29, Human Colorectal): 44.3 µM
IC50 (Lewis Lung, mouse lung): 6.34 µM
IC50 (P388, Mouse Lymphoma): 10.9 µM
IC50 (MCF-7, Human Breast): 20.4 µM

CCCS(=O)(=O)Oc1ccc2nc3c(cc2c1CN(C)C)Cn1c-3cc2c(c1=O)COC(=O)C2(CC)OC(=O)CNC(=O)/C=C\C(=O)O (stereo not shown) [Compound 2]
Tumor Volume [1, 3]: 205.2 mm3
Tumor Volume [1, 4]: 182.6 mm3
Tumor Volume [1, 5]: 413.8 mm3
Tumor Volume [1, 6]: 472.2 mm3
Tumor Volume [1, 7]: 602.1 ± 339.3 mm3
Tumor Volume [1, 8]: 706.8 ± 360.0 mm3
Tumor Volume [1, 9]: 733.7 ± 497.0 mm3
Tumor Volume [1, 10]: 861.1 ± 523.9 mm3
Tumor Volume [1, 11]: 950.0 ± 578.0 mm3
Tumor Volume [1, 12]: 1084.9 ± 536.3 mm3
Tumor Volume [1, 13]: 1147.2 ± 598.0 mm3
Tumor Volume [1, 14]: 1269.1 ± 644.1 mm3
Tumor Volume [1, 15]: 1632.9 ± 752.6 mm3
Tumor Volume [1, 16]: 1841.8 ± 859.5 mm3
Tumor Volume [1, 17]: 1639.4 mm3
Tumor Volume [1, 18]: 2029.4 mm3
Tumor Weight [1, 19]: 1.55 ± 0.51 g
Tumor Weight [1, 20]: 1.75 ± 0.90 g
Tumor Inhibitory Growth Weight [1, 19]: 49.7
Tumor Inhibitory Growth Weight [1, 20]: 43.2
inhibitory rate [1, 21]: 49.7%
inhibitory rate [1, 22]: 43.2%
effect on nude mice xenograft NCI-H460 human non-small cell lung cancer growth (in words) [1]: could inhibit
dose dependence of anticancer effect (in words) [1]: dose-dependent anticancer effect
Ending Body Weight [2, 19]: 18.93 ± 1.49 g
Ending Body Weight [2, 20]: 17.82 ± 1.06 g
IC50 (HT-29, Human Colorectal): 50.8 µM
IC50 (Lewis Lung, mouse lung): 12.8 µM
IC50 (P388, Mouse Lymphoma): 10.6 µM
IC50 (MCF-7, Human Breast): 30.8 µM

CC[C@@]1(OC(=O)CNC(=O)/C=C\C(=O)O)C(=O)OCc2c1cc1n(c2=O)Cc2cc3c(CN(C)C)c(OS(=O)(=O)C(C)C)ccc3nc2-1 [Compound 3]
Tumor Volume [1, 3]: 237.9 mm3
Tumor Volume [1, 4]: 211.8 mm3
Tumor Volume [1, 5]: 392.9 mm3
Tumor Volume [1, 6]: 455.2 mm3
Tumor Volume [1, 7]: 547.2 ± 390.0 mm3
Tumor Volume [1, 8]: 624.6 ± 371.5 mm3
Tumor Volume [1, 9]: 719.6 ± 315.8 mm3
Tumor Volume [1, 10]: 795.4 ± 389.0 mm3
Tumor Volume [1, 11]: 958.4 ± 486.2 mm3
Tumor Volume [1, 12]: 999.8 ± 562.9 mm3
Tumor Volume [1, 13]: 1093.2 ± 692.2 mm3
Tumor Volume [1, 14]: 1291.5 ± 564.4 mm3
Tumor Volume [1, 15]: 1400.4 ± 670.6 mm3
Tumor Volume [1, 16]: 1553.2 ± 706.3 mm3
Tumor Volume [1, 17]: 1588.3 mm3
Tumor Volume [1, 18]: 1908.5 mm3
Tumor Weight [1, 19]: 1.36 ± 0.50 g
Tumor Weight [1, 20]: 1.65 ± 0.86 g
Tumor Inhibitory Growth Weight [1, 19]: 55.8
Tumor Inhibitory Growth Weight [1, 20]: 46.4
inhibitory rate [1, 21]: 55.8%
inhibitory rate [1, 22]: 46.4%
effect on nude mice xenograft NCI-H460 human non-small cell lung cancer growth (in words) [1]: could inhibit
dose dependence of anticancer effect (in words) [1]: dose-dependent anticancer effect
Ending Body Weight [2, 19]: 19.63 ± 0.77 g
Ending Body Weight [2, 20]: 18.42 ± 1.04 g
IC50 (HT-29, Human Colorectal): 14.3 µM
IC50 (Lewis Lung, mouse lung): 0.929 µM
IC50 (P388, Mouse Lymphoma): 0.0847 µM
IC50 (MCF-7, Human Breast): 9.79 µM

CC[C@@]1(O)C(=O)OCc2c1cc1n(c2=O)Cc2cc3c(CN(C)C)c(O)ccc3nc2-1 [topotecan, Topotecan, reference compound]
Tumor Volume [1, 3]: 209.6 mm3
Tumor Volume [1, 5]: 574.0 mm3
Tumor Volume [1, 7]: 759.8 ± 419.9 mm3
Tumor Volume [1, 9]: 933.1 ± 496.8 mm3
Tumor Volume [1, 11]: 1220.7 ± 611.4 mm3
Tumor Volume [1, 13]: 1273.3 ± 685.1 mm3
Tumor Volume [1, 15]: 1413.0 ± 717.0 mm3
Tumor Volume [1, 17]: 1639.9 mm3
Tumor Weight [1, 19]: 1.58 ± 0.74 g
Tumor Inhibitory Growth Weight [1, 19]: 48.7
inhibitory rate [1, 21]: 48.7%
Ending Body Weight [2, 19]: 17.32 ± 1.18 g
IC50 (HT-29, Human Colorectal): 22.9 µM
IC50 (Lewis Lung, mouse lung): 11 µM
IC50 (P388, Mouse Lymphoma): 18.5 µM
IC50 (MCF-7, Human Breast): 22.2 µM
